Data: patent publication US10897891B2, “Compositions and methods for prolonged cell storage” (Board of Regents, The University of Texas System, priority 2015, dated 2021)
“Also recorded” adds a separate entry of the source.

How the values were obtained:
Format in all cases: cell-based, human
platelets [1] = assay: Platelet degranulation by anti-von Willebrand factor immunofluorescent staining (Experiment D); conditions: 1.5% PEG-400, 5° C., 8 days, rotation
Experimental: Functional, non-degranulated, platelets should retain vWF at high concentrations in their alpha granules. To study the effect of PEG on gradual loss or preservation a direct fluorescent antibody immunoflorescent staining protocol was developed. Slides were air dried for 5 min and immersed in 0.5% fresh paraformaldehyde in 10% PBS pH 7.3 for 10 min. Slides were soaked for 2 min in PBS with 5 changes. Subsequently excess PBS was drained and slides immersed for 2 min in ice cold dry acetone. Again, slides were drained and excess acetone was removed with 5 PBS washings of 2 min each. Slides were then immersed in 0.5% filter sterilized BSA in PBS and allowed to block overnight at 4° C. After draining excess block solution, 50 ul of primary antibody (Polyclonal rabbit anti-vWF-PB9062, Boster Biological Technology, Pleasanton, Calif.) at 5 ng/ml was applied immediately over the platelet spot and incubated in a humidity chamber for 4 hr at 4° C. Slides were washed with 5 changes of 0.5% BSA/PBS for 5 min each. Excess fluid was again removed and FITC labeled goatd anti-rabbit, Sigma F0382, was added 50 ug/ml in 0.5% BSA/PBS for 3 hr. […]
von Willebrand Factor (vWF) is a major component of platelet alpha granules. […] No post photographic image adjustments were made to images analyzed.

platelets [2] = assay: Hydrogen peroxide induced platelet aggregation (platelet 'aging', Experiment B); conditions: 2% PEG-400 in PBS, 1 hr room temperature
Experimental: Platelet aggregation using epinephrine. Ten ml of 24 hr old platelet residual was derived from one platelet unit and split into two 5 ml aliquots in 50 ml tubes. One sample received 10% phosphate buffered saline (PBS) and one 10% PBS containing PEG400 such that the final PEG concentration was 2%. These samples were placed on a flat-bed rotator with a 1 inch stroke, at 70 cycles per min, at 5° C. for 7 days. 100 ul of these platelet suspensions were added to wells of a 96 well U bottom plate. Epinephrine 0.1 mg/ml (Pharmaceutical NDC 0409-4921-34-44-048-DK) was diluted with PBS and 100 ul was added to test wells to give a finial concentration of 10 mcg/ml. The plate was rotated overnight to allow aggregation. The extent of aggregation was read using an ELISA plate reader (Molecular Devises, Vmax) at 690 nm wavelength. Platelets, with and without PEG, were also aggregated by the addition of 10% H2O2. Hydrogen peroxide is not an agonist for the platelet receptor; however exposure to hydrogen peroxide mimics the platelet storage lesion though membrane ageing. In this study, the inventors tested 2 day old residual platelets form one donor unit by splitting the material in to a 24 well cluster plate. […] Table 3 presents additional cryoprotective agents scored for the effect on microscopic degranulation (20× high contrast lighting as above). […]

platelets [3] = assay: Epinephrine induced platelet aggregation following cold storage (OD 690 nm, Experiment C); conditions: 2% PEG-400, 5° C. for 7 days
Experimental: Platelet aggregation using epinephrine. Ten ml of 24 hr old platelet residual was derived from one platelet unit and split into two 5 ml aliquots in 50 ml tubes. One sample received 10% phosphate buffered saline (PBS) and one 10% PBS containing PEG400 such that the final PEG concentration was 2%. These samples were placed on a flat-bed rotator with a 1 inch stroke, at 70 cycles per min, at 5° C. for 7 days. 100 ul of these platelet suspensions were added to wells of a 96 well U bottom plate. Epinephrine 0.1 mg/ml (Pharmaceutical NDC 0409-4921-34-44-048-DK) was diluted with PBS and 100 ul was added to test wells to give a finial concentration of 10 mcg/ml. The plate was rotated overnight to allow aggregation. The extent of aggregation was read using an ELISA plate reader (Molecular Devises, Vmax) at 690 nm wavelength. Platelets, with and without PEG, were also aggregated by the addition of 10% H2O2. […] Table 3 presents additional cryoprotective agents scored for the effect on microscopic degranulation (20× high contrast lighting as above).
Fresh donor platelets were supplemented with PBS or PBS 2% PEG-400 as described in the methods, and incubated at 5° C. for 7 days. These control and test samples were then loaded side by side on a 96 well plate (ensuring that test and control reading would be made simultaneously). […]

How did the “vWF degranulation at 5° C.” value (platelets [1]) turn out when Polyethylene glycol [PEG-400] was run?
The value was “sufficient to prevent vWG degranulation; also recorded: prevented vWG degranulation”.

And the “platelet aggregation after 10% hydrogen peroxide vs PBS control” value (platelets [2])?
The value was “less aggregation of the platelets”.

And the “initial aggregation in the stored state (baseline OD 690 nm, no epinephrine)” value (platelets [3])?
Its value is “less initial aggregation in the stored state”.

And the “aggregation response to epinephrine challenge (OD 690 nm)” value (platelets [3]; 0 vs 10 μg epinephrine)?
The value was “significant aggregation response to epinephrine”.
